# Where two headings read alike, the source gives them in different places.
# Tests used:
# [1] = target: T1, complement C5a receptor 1 (C5aR1) (Homo sapiens, UniProt P21730); assay: β-arrestin recruitment via C5aR1 activation in live CHO-K1 cells (PathHunter), antagonist mode; assay type: cell-based; settings: antagonist mode; recombinant hC5a (EC90) as competing natural agonist; live CHO-K1 cells; read-out: [Antagonist] B-arrestin2 recruitment: Average IC50
# T1 construct: β-galactosidase fragment (PathHunter enzyme complementation); host or cells: CHO-K1 (PathHunter CHO-K1 C5aR1 β-arrestin cell line)
# T1 sequence (P21730 1-350): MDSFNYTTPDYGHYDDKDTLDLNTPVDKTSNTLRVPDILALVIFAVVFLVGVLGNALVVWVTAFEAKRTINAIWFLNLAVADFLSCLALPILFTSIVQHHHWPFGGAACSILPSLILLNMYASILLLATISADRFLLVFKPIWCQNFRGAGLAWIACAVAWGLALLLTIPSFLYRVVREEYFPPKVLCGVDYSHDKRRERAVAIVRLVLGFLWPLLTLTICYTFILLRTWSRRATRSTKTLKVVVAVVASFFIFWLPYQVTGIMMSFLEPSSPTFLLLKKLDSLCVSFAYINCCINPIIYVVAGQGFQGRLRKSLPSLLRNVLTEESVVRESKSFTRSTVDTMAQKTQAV
# Summary of the method: (§1)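 Live CHO-K1 cells carry two galactosidase enzyme fragments, one fused to β-arrestin and one to C5aR1, so that β-arrestin recruitment restores enzyme activity. Agonist mode tests compounds alone. Antagonist mode tests them against recombinant hC5a at EC90, and IC50 values are reported in binned ranges.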
# [2] = target: T1, complement C5a receptor 1 (C5aR1); assay: β-arrestin recruitment via C5aR1 activation in live CHO-K1 cells (PathHunter), agonist mode; assay type: cell-based
# Summary of the method: as §1
SMILES,IC50 [1],[Agonist] B-arrestin2 recruitment: Average EC50 (nM) [2],[Agonist] B-arrestin2 recruitment: Average EC50 (nM) ([2]; at 10 μM)
"Cc1cnc2cc(N3CCN(c4c(C)cccc4F)CC3)c(=O)n(Cc3ncccc3C(F)(F)F)c2n1 [compound 67, 7-(4-(2-Fluoro-6-methylphenyl)piperazin-1-yl)-3-methyl-5-((3-(trifluoromethyl)pyridin-2-yl)methyl)pyrido[2,3-b]pyrazin-6(5H)-one]",< 500 nM,Non-Active,
"O=c1c(C2CCN(c3cnccc3C(F)(F)F)CC2)cc2nccnc2n1Cc1nccnc1C(F)(F)F [compound 70, 5-((3-(Trifluoromethyl)pyrazin-2-yl)methyl)-7-(1-(4-(trifluoromethyl)pyridin-3-yl)piperidin-4-yl)pyrido[2,3-b]pyrazin-6(5H)-one]",500 to 5000 nM,Non-Active,
"Cc1cnc2c(C)c(C3CCN(c4c(C)cccc4F)CC3)c(=O)n(Cc3nccnc3C(F)(F)F)c2n1 [compound 73, 7-(1-(2-Fluoro-6-methylphenyl)piperidin-4-yl)-3,8-dimethyl-5-((3-(trifluoromethyl)pyrazin-2-yl)methyl)pyrido[2,3-b]pyrazin-6(5H)-one]",500 to 5000 nM,Non-Active,
"Cc1c(C2CCN(c3cnccc3C(F)(F)F)CC2)c(=O)n(Cc2ncccc2F)c2nccnc12 [compound 86, 5-((3-Fluoropyridin-2-yl)methyl)-8-methyl-7-(1-(4-(trifluoromethyl)pyridin-3-yl)piperidin-4-yl)pyrido[2,3-b]pyrazin-6(5H)-one]",500 to 5000 nM,Non-Active,
"Cc1cccc(F)c1N1CCC(c2cc3nccnc3n(Cc3ncccc3OC(F)(F)F)c2=O)CC1 [compound 87, 7-(1-(2-Fluoro-6-methylphenyl)piperidin-4-yl)-5-((3-(trifluoromethoxy)pyridin-2-yl)methyl)pyrido[2,3-b]pyrazin-6(5H)-one]",< 500 nM,Non-Active,
"Cc1cccc(F)c1N1CCN(c2c(C)c3nccnc3n(Cc3ncccc3C(F)(F)F)c2=O)CC1 [compound 88, 7-(4-(2-Fluoro-6-methylphenyl)piperazin-1-yl)-8-methyl-5-((3-(trifluoromethyl)pyridin-2-yl)methyl)pyrido[2,3-b]pyrazin-6(5H)-one]",< 500 nM,Non-Active,
"Cc1cccc(F)c1C1CCN(c2cc3nccnc3n(Cc3nccnc3C(F)(F)F)c2=O)CC1 [compound 89, 7-(4-(2-Fluoro-6-methylphenyl)piperidin-1-yl)-5-((3-(trifluoromethyl)pyrazin-2-yl)methyl) pyrido[2,3-b]pyrazin-6(5H)-one]",5000 to 100000 nM,Non-Active,
"Cc1cnc2c(C)c(N3CCN(c4c(C)cccc4F)CC3)c(=O)n(Cc3ncccc3C(F)(F)F)c2n1 [compound 118, 7-(4-(2-fluoro-6-methylphenyl)piperazin-1-yl)-3,8-dimethyl-5-((3-(trifluoromethyl)pyridin-2-yl)methyl)pyrido[2,3-b]pyrazin-6(5H)-one]",500 to 5000 nM,Non-Active,
"Cc1cccc(F)c1N1CCN(c2cc3nccnc3n(Cc3ncccc3OC(F)(F)F)c2=O)CC1 [compound 123, 7-(4-(2-Fluoro-6-methylphenyl)piperazin-1-yl)-5-((3-(trifluoromethoxy)pyridin-2-yl)methyl)pyrido[2,3-b]pyrazin-6(5H)-one]",< 500 nM,Non-Active,
"Cc1cnc2cc(N3CCN(c4c(C)cccc4F)CC3)c(=O)n(Cc3ncccc3OC(F)(F)F)c2n1 [compound 124, 7-(4-(2-Fluoro-6-methylphenyl)piperazin-1-yl)-3-methyl-5-((3-(trifluoromethoxy)pyridin-2-yl)methyl)pyrido[2,3-b]pyrazin-6(5H)-one]",< 500 nM,Non-Active,
"COc1nccnc1Cn1c(=O)c(N2CCN(c3c(C)cccc3F)CC2)cc2ncc(C)nc21 [compound 125, 7-(4-(2-Fluoro-6-methylphenyl)piperazin-1-yl)-5-((3-methoxypyrazin-2-yl)methyl)-3-methylpyrido[2,3-b]pyrazin-6(5H)-one]",500 to 5000 nM,Non-Active,
"Cc1nccnc1Cn1c(=O)c(C2CCN(c3c(F)cccc3C(F)(F)F)CC2)cc2nccnc21 [compound 126, 7-(1-(2-Fluoro-6-(trifluoromethyl)phenyl)piperidin-4-yl)-5-((3-methylpyrazin-2-yl)methyl)pyrido[2,3-b]pyrazin-6(5H)-one]",500 to 5000 nM,Non-Active,
"Cc1ccnc(F)c1N1CCC(c2cc3nccnc3n(Cc3nccnc3C)c2=O)CC1 [compound 128, 7-(1-(2-Fluoro-4-methylpyridin-3-yl)piperidin-4-yl)-5-((3-methylpyrazin-2-yl)methyl)pyrido[2,3-b]pyrazin-6(5H)-one]",5000 to 100000 nM,,Non-Active at 10 μM
"Cc1ccnc(F)c1N1CCC(c2cc3nccnc3n(Cc3nccnc3C(F)(F)F)c2=O)CC1 [compound 129, 7-(1-(2-Fluoro-4-methylpyridin-3-yl)piperidin-4-yl)-5-((3-(trifluoromethyl)pyrazin-2-yl)methyl)pyrido[2,3-b]pyrazin-6(5H)-one]",< 500 nM,Non-Active,

# Other lines, results leading:
IC50 [1],[Agonist] B-arrestin2 recruitment: Average EC50 (nM) [2],[Agonist] B-arrestin2 recruitment: Average EC50 (nM) ([2]; at 10 μM),SMILES
500 to 5000 nM,Non-Active,,"COc1cnc2c(cc(C3CCN(c4c(C)cccc4F)CC3)c(=O)n2Cc2ncccc2C(F)(F)F)n1 [compound 65, 7-(1-(2-Fluoro-6-methylphenyl)piperidin-4-yl)-2-methoxy-5-((3-(trifluoromethyl)pyridin-2-yl)methyl)pyrido[2,3-b]pyrazin-6(5H)-one]"
< 500 nM,Non-Active,,"Cc1cnc2cc(C3CCN(c4c(C)cccc4F)CC3)c(=O)n(Cc3ncccc3OC(F)F)c2n1 [compound 66, 5-((3-(Difluoromethoxy)pyridin-2-yl)methyl)-7-(1-(2-fluoro-6-methylphenyl)piperidin-4-yl)-3-methylpyrido[2,3-b]pyrazin-6(5H)-one]"
< 500 nM,Non-Active,,"Cc1cnc2cc(C3CCN(c4c(C)cccc4F)CC3)c(=O)n(Cc3ncccc3OC(F)(F)F)c2n1 [compound 68, 7-(1-(2-Fluoro-6-methylphenyl)piperidin-4-yl)-3-methyl-5-((3-(trifluoromethoxy)pyridin-2-yl)methyl)pyrido[2,3-b]pyrazin-6(5H)-one]"
> 100000 nM,Non-Active,,"Cc1cnc2cc(N3CCN(c4cc(F)cnc4C)CC3)c(=O)n(Cc3ncccc3C(F)(F)F)c2n1 [compound 69, 7-(4-(5-Fluoro-2-methylpyridin-3-yl)piperazin-1-yl)-3-methyl-5-((3-(trifluoromethyl)pyridin-2-yl)methyl)pyrido[2,3-b]pyrazin-6(5H)-one]"
500 to 5000 nM,Non-Active,,"O=c1c(C2CCN(c3cnccc3Cl)CC2)cc2nccnc2n1Cc1ncccc1C(F)(F)F [compound 71, 7-(1-(4-Chloropyridin-3-yl)piperidin-4-yl)-5-((3-(trifluoromethyl)pyridin-2-yl)methyl)-pyrido[2,3-b]pyrazin-6(5H)-one]"
> 100000 nM,Non-Active,,"O=c1c(C2CCN(c3cccnc3F)CC2)cc2nccnc2n1Cc1ncccc1C(F)(F)F [compound 72, 7-(1-(2-Fluoropyridin-3-yl)piperidin-4-yl)-5-((3-(trifluoromethyl)pyridin-2-yl)methyl) pyrido[2,3-b]pyrazin-6(5H)-one]"
< 500 nM,Non-Active,,"Cc1cnc2cc(C3CCN(c4c(C)cccc4F)CC3)c(=O)n(Cc3nccnc3C(F)F)c2n1 [compound 120, 5-((3-(Difluoromethyl)pyrazin-2-yl)methyl)-7-(1-(2-fluoro-6-methylphenyl)piperidin-4-yl)-3-methylpyrido[2,3-b]pyrazin-6(5H)-one]"
< 500 nM,Non-Active,,"Cc1ccnc(F)c1N1CCC(c2cc3nccnc3n(Cc3ncccc3C(F)(F)F)c2=O)CC1 [compound 127, 7-(1-(2-Fluoro-4-methylpyridin-3-yl)piperidin-4-yl)-5-((3-(trifluoromethyl)pyridin-2-yl)methyl)pyrido[2,3-b]pyrazin-6(5H)-one]"
< 500 nM,Non-Active,,"Cc1cnc2cc(C3CCN(c4c(C)ccnc4F)CC3)c(=O)n(Cc3nccnc3C(F)(F)F)c2n1 [compound 130, 7-(1-(2-Fluoro-4-methylpyridin-3-yl)piperidin-4-yl)-3-methyl-5-((3-(trifluoromethyl)pyrazin-2-yl)methyl)pyrido[2,3-b]pyrazin-6(5H)-one]"
< 500 nM,Non-Active,,Cc1cnc2cc(C3CCN(c4ncsc4C)CC3)c(=O)n(Cc3ncccc3C(F)(F)F)c2n1 [compound 131]

# — patent US20260317320A1, “C5AR1 ANTAGONISTS AND USES THEREOF” (Vanqua Bio, Inc., priority 2022, published 2026)
